Laboratory results reported in the supplement of paper PMC11061612.

Key:
Assay in all cases: Bliss excess, mean over the matrix (fraction); higher = more synergy
AM-38 (Glioblastoma) = test system: AM-38 (Glioblastoma)
In short: (§1)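 Bliss excess equals the observed combination effect minus the expected value EA + EB − EA·EB, where EA and EB are the effects of each agent alone. Combination Emax is the second-highest inhibition within the matrix. Inhibition was scaled from CellTiter-Glo 2.0 luminescence, with 0 set by vehicle wells and 1 by blank wells, after 72 hours of two-drug dosing of cells plated in 1536-well plates.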

[1] = test system: BHT-101 (Thyroid Gland Carcinoma)
In short: as §1

[2] = test system: BxPC-3 (Pancreatic Carcinoma)
In short: as §1

[3] = test system: CL-11 (Colorectal Carcinoma)
In short: as §1

[4] = test system: MDA-MB-415 (Breast Carcinoma)
In short: as §1

[5] = test system: MONO-MAC-6 (Acute Myeloid Leukemia)
In short: as §1

[6] = test system: NCI-H1876 (Small Cell Lung Carcinoma)
In short: as §1

NCI-H226 (Mesothelioma) = test system: NCI-H226 (Mesothelioma)
In short: as §1

NCI-H2373 (Mesothelioma) = test system: NCI-H2373 (Mesothelioma)
In short: as §1

[7] = test system: NCI-H3118 (Head and Neck Carcinoma)
In short: as §1

[8] = test system: NCI-H596 (Other Solid Carcinomas)
In short: as §1

[9] = test system: OVCAR-3 (Ovarian Carcinoma)
In short: as §1

[10] = test system: P30-OHK (B-Lymphoblastic Leukemia)
In short: as §1

[11] = test system: P32-ISH (Burkitt's Lymphoma)
In short: as §1

[12] = test system: PA-TU-8988T (Pancreatic Carcinoma)
In short: as §1

T47D (Breast Carcinoma) = test system: T47D (Breast Carcinoma)
In short: as §1

[13] = test system: T84 (Colorectal Carcinoma)
In short: as §1

[14] = test system: TUR (Acute Myeloid Leukemia)
In short: as §1

WM35 (Melanoma) = test system: WM35 (Melanoma)
In short: as §1

[15] = test system: ZR-75-30 (Breast Carcinoma)
In short: as §1

| Structure (SMILES) | Bliss excess (AM-38 (Glioblastoma)) | Bliss excess [1] | Bliss excess [2] | Bliss excess [3] | Bliss excess [4] | Bliss excess [5] | Bliss excess [6] | Bliss excess (NCI-H226 (Mesothelioma)) | Bliss excess (NCI-H2373 (Mesothelioma)) | Bliss excess [7] | Bliss excess [8] | Bliss excess [9] | Bliss excess [10] | Bliss excess [11] | Bliss excess [12] | Bliss excess (T47D (Breast Carcinoma)) | Bliss excess [13] | Bliss excess [14] | Bliss excess (WM35 (Melanoma)) | Bliss excess [15] |
| --- | --- | --- | --- | --- | --- | --- | --- | --- | --- | --- | --- | --- | --- | --- | --- | --- | --- | --- | --- | --- |
| CC1(C)CCC(CN2CCN(c3ccc(C(=O)NS(=O)(=O)c4ccc(NCC5CCOCC5)c([N+](=O)[O-])c4)c(Oc4cnc5[nH]ccc5c4)c3)CC2)=C(c2ccc(Cl)cc2)C1 [Venetoclax] + COc1cc(Nc2ncc3c(n2)-c2ccc(Cl)cc2C(c2c(F)cccc2OC)=NC3)ccc1C(=O)O [Alisertib] (first compound max 1 µM, 7x7, partner max 10 µM) | 0.0101 | -0.0636 | -0.0291 | -0.0062 | -0.0711 | 0.164 | 0.0228 | -0.089 | -0.0293 | -0.0188 | -0.0501 | -0.0234 | 0.178 | -0.0078 | 0.0042 | -0.0093 | 0.0136 | 0.077 | -0.0338 | -0.0603 |
| CN(CCO)CC[C@H](CSc1ccccc1)Nc1ccc(S(=O)(=O)NC(=O)c2ccc(N3CCC([C@@H](O)c4ccccc4-c4ccc(Cl)cc4)CC3)cc2)cc1S(=O)(=O)C(F)(F)F [AZD4320] + Cn1cnc2c(F)c(Nc3ccc(Br)cc3Cl)c(C(=O)NOCCO)cc21 [Selumetinib] (first compound max 1 µM, 7x7, partner max 3 µM) | 0.0746 | 0.0147 | 0.0749 | 0.0489 | -0.0181 | 0.0401 | 0.0752 | -0.0248 | 0.0263 | 0.0807 | -0.0441 | 0.0276 | 0.0291 | 0.044 | 0.0561 | 0.0231 | 0.0142 | 0.0029 | 0.154 | -0.06 |
| NC1(C(=O)N[C@@H](CCO)c2ccc(Cl)cc2)CCN(c2ncnc3[nH]ccc23)CC1 [Capivasertib] + COc1nnc2ccc(N3CCC(c4ccc(OCCN5CCN(C)C(=O)[C@H]5C)cc4)CC3)nn12 [AZD5153] (first compound max 10 µM, 7x7, partner max 1 µM) | 0.0039 | -0.0479 | -0.0336 | -0.0206 | 0.0467 | -0.003 | 0.0774 | -0.0165 | 0.0349 | -0.0144 | -0.0136 | 0.0189 | 0.0358 | 0.119 | -0.0603 | 0.0139 | -0.0695 | 0.0661 | -0.0195 | -0.034 |
| CCN(CCO)CCCOc1ccc2c(Nc3cc(CC(=O)Nc4cccc(F)c4)[nH]n3)ncnc2c1 [AZD2811] + C=CCn1c(=O)c2cnc(Nc3ccc(N4CCN(C)CC4)cc3)nc2n1-c1cccc(C(C)(C)O)n1 [AZD1775] (first compound max 1 µM, partner max 1 µM) | 0.0107 | 0.0043 | -0.0099 | 0.0034 | -0.0152 | 0.0263 | -0.0318 | -0.0708 | -0.0482 | -0.0798 | 0.0114 | -0.0154 | -0.0412 | -0.0336 | 0.0311 | -0.0236 | -0.0627 | 0.117 | -0.0098 | -0.0422 |
| COc1cccc(OCCCN)c1-c1cc(Nc2cnc(C#N)cn2)n[nH]1 [Prexasertib] + C[C@@H]1COCCN1C2=NC(=NC(=C2)C3(CC3)[S@](=N)(=O)C)C4=C5C=CNC5=NC=C4 [AZD6738] (first compound max 1 µM, 7x7, partner max 10 µM) | -0.0074 | 0.0322 | -0.0535 | -0.058 | -0.0055 | 0.0104 | 0.0095 | 0.01 | -0.0628 | -0.032 | 0.0159 | 0.032 | -0.0333 | -0.0127 | 0.0224 | 0.0003 | -0.0026 | 0.0298 | -0.026 | -0.0102 |
| CN(CCO)CC[C@H](CSc1ccccc1)Nc1ccc(S(=O)(=O)NC(=O)c2ccc(N3CCC([C@@H](O)c4ccccc4-c4ccc(Cl)cc4)CC3)cc2)cc1S(=O)(=O)C(F)(F)F [AZD4320] + C1CN(CCC1(C(=O)N[C@@H](CCO)C2=CC=C(C=C2)Cl)N)C3=NC=NC4=C3C=CN4 [Capivasertib] (first compound max 1 µM, 7x7, partner max 3 µM) | -0.0484 | 0.0092 | -0.0395 | -0.0496 | -0.0284 | -0.0438 | -0.0593 | -0.0589 | -0.0351 | -0.0476 | -0.0509 | -0.0393 | 0.0169 | 0.001 | -0.0315 | -0.0554 | -0.0269 | -0.0062 | -0.017 | -0.0914 |
| COc1nnc2ccc(N3CCC(c4ccc(OCCN5CCN(C)C(=O)[C@H]5C)cc4)CC3)nn12 [AZD5153] + CC1(C)CCC(CN2CCN(c3ccc(C(=O)NS(=O)(=O)c4ccc(NCC5CCOCC5)c([N+](=O)[O-])c4)c(Oc4cnc5[nH]ccc5c4)c3)CC2)=C(c2ccc(Cl)cc2)C1 [Venetoclax] (first compound max 1 µM, 7x7, partner max 1 µM) | -0.135 | -0.0616 | -0.0745 | -0.0302 | -0.0155 | 0.0179 | 0.0029 | -0.0192 | -0.0769 | -0.0517 | -0.0701 | -0.0157 | 0.102 | -0.0067 | -0.0254 | -0.0713 | -0.0874 | -0.0224 | -0.0097 | -0.0852 |
